Tests used:
Design in all cases: scale not given here
ECHOG Barnyardgrass [1] = experiment: Postemergence herbicidal evaluation, ECHOG; type: in vivo, Echinochloa crus-galli, (L.) Beau; details: postemergence spray, rated about two-three weeks after treatment
Outline: (§1)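 For this test, compound in an 80/20 acetone/water vehicle with 1.0% seed oil was sprayed over two-week-old seedlings at about 0.006 to 0.400 kg per hectare. Injury was assessed visually two to three weeks on.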

ABUTH Velvetleaf [2] = experiment: Postemergence herbicidal evaluation, ABUTH; type: in vivo, Abutilon theophrasti, Medic.; details: postemergence spray, rated about two-three weeks after treatment
Outline: as §1

ZEAMX Corn, Field [3] = experiment: Preemergence herbicidal evaluation, ZEAMX; type: in vivo, Zea mays, L. (Sammel-Bezeichnung); details: preemergence
Outline: (§2)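 First, seed is blended with potting soil and sown over roughly an inch of soil per cup. Next, the surface is sprayed with an aqueous acetone solution delivering about 0.013–0.800 kg/ha. Finally, cups are grown in the greenhouse and rated after 4–5 weeks.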

SETVI Foxtail, Green [4] = experiment: Preemergence herbicidal evaluation, SETVI; type: in vivo, Setaria viridis, (L.) Beau; details: preemergence
Outline: as §2

[5] = test system: TRZAWR Wheat, Winter, cv Riband; experiment: Preemergence herbicidal evaluation, TRZAWR; type: in vivo, Triticum aestivum; details: preemergence
Outline: as §2

[6] = test system: TRZAWR Wheat, Winter, cv Riband; experiment: Postemergence herbicidal evaluation, TRZAWR; type: in vivo, Triticum aestivum; details: postemergence spray, rated about two-three weeks after treatment
Outline: as §1

AMBEL Ragweed, Common [7] = experiment: Postemergence herbicidal evaluation, AMBEL; type: in vivo, Ambrosia artemisifolia, L.; details: postemergence spray, rated about two-three weeks after treatment
Outline: as §1

[8] = test system: IPOHE Morningglory, Ivyleaf; experiment: Postemergence herbicidal evaluation, IPOHE; type: in vivo, Ipomoea hederacea, (L.) Jacq.; details: postemergence spray, rated about two-three weeks after treatment
Outline: as §1

GALAP Galium [9] = experiment: Preemergence herbicidal evaluation, GALAP; type: in vivo, Galium aparine; details: preemergence
Outline: as §2

ORYSAT Rice, Tebonnet [10] = experiment: Postemergence herbicidal evaluation, ORYSAT; type: in vivo, Oryza sativa, (L.); details: postemergence spray, rated about two-three weeks after treatment
Outline: as §1

ORYSAT Rice, Tebonnet [11] = experiment: Preemergence herbicidal evaluation, ORYSAT; type: in vivo, Oryza sativa, (L.); details: preemergence
Outline: as §2

GALAP Galium [12] = experiment: Postemergence herbicidal evaluation, GALAP; type: in vivo, Galium aparine; details: postemergence spray, rated about two-three weeks after treatment
Outline: as §1

[13] = test system: IPOHE Morningglory, Ivyleaf; experiment: Preemergence herbicidal evaluation, IPOHE; type: in vivo, Ipomoea hederacea, (L.) Jacq.; details: preemergence
Outline: as §2

ABUTH Velvetleaf [14] = experiment: Preemergence herbicidal evaluation, ABUTH; type: in vivo, Abutilon theophrasti, Medic.; details: preemergence
Outline: as §2

GLXMAW Soybean, Williams [15] = experiment: Postemergence herbicidal evaluation, GLXMAW; type: in vivo, Glycine max, (L.) Merr. cv Williams; details: postemergence spray, rated about two-three weeks after treatment
Outline: as §1

[16] = test system: CHEAL Lambsquarters, Common; experiment: Preemergence herbicidal evaluation, CHEAL; type: in vivo, Chenopodium album, L.; details: preemergence
Outline: as §2

SETVI Foxtail, Green [17] = experiment: Postemergence herbicidal evaluation, SETVI; type: in vivo, Setaria viridis, (L.) Beau; details: postemergence spray, rated about two-three weeks after treatment
Outline: as §1

CASOB Sicklepod [18] = experiment: Postemergence herbicidal evaluation, CASOB; type: in vivo, Cassia obtusifolia, L.; details: postemergence spray, rated about two-three weeks after treatment
Outline: as §1

CASOB Sicklepod [19] = experiment: Preemergence herbicidal evaluation, CASOB; type: in vivo, Cassia obtusifolia, L.; details: preemergence
Outline: as §2

ECHOG Barnyardgrass [20] = experiment: Preemergence herbicidal evaluation, ECHOG; type: in vivo, Echinochloa crus-galli, (L.) Beau; details: preemergence
Outline: as §2

AMBEL Ragweed, Common [21] = experiment: Preemergence herbicidal evaluation, AMBEL; type: in vivo, Ambrosia artemisifolia, L.; details: preemergence
Outline: as §2

GLXMAW Soybean, Williams [22] = experiment: Preemergence herbicidal evaluation, GLXMAW; type: in vivo, Glycine max, (L.) Merr. cv Williams; details: preemergence
Outline: as §2

ZEAMX Corn, Field [23] = experiment: Postemergence herbicidal evaluation, ZEAMX; type: in vivo, Zea mays, L. (Sammel-Bezeichnung); details: postemergence spray, rated about two-three weeks after treatment
Outline: as §1

[24] = test system: CHEAL Lambsquarters, Common; experiment: Postemergence herbicidal evaluation, CHEAL; type: in vivo, Chenopodium album, L.; details: postemergence spray, rated about two-three weeks after treatment
Outline: as §1

Cc1ccccc1-n1nnc2cc(F)c(-n3c(=O)cc(C(F)(F)F)n(C)c3=O)cc21 [Example 20]
6.5: ABUTH herbicidal rating (ABUTH Velvetleaf [14]; rate 0.032 kg/ha)
0.0: Postemergence herbicidal rating ECHCG (ECHOG Barnyardgrass [1]; 0.008 kg/ha) | Postemergence herbicidal rating ECHCG (ECHOG Barnyardgrass [1]; 0.016 kg/ha) | Postemergence herbicidal rating ECHCG (ECHOG Barnyardgrass [1]; 0.032 kg/ha) | Postemergence herbicidal rating ECHCG (ECHOG Barnyardgrass [1]; 0.062 kg/ha) | ZEAMX herbicidal rating (ZEAMX Corn, Field [3]; rate 0.016 kg/ha) | SETVI herbicidal rating (SETVI Foxtail, Green [4]; rate 0.016 kg/ha) | TRZAWR herbicidal rating ([5]; rate 0.016 kg/ha) | TRZAWR herbicidal rating ([5]; rate 0.032 kg/ha) | Postemergence herbicidal rating AMBEL (AMBEL Ragweed, Common [7]; 0.008 kg/ha) | GALAP herbicidal rating (GALAP Galium [9]; rate 0.016 kg/ha) | GALAP herbicidal rating (GALAP Galium [9]; rate 0.032 kg/ha) | GALAP herbicidal rating (GALAP Galium [9]; rate 0.062 kg/ha) | GALAP herbicidal rating (GALAP Galium [9]; rate 0.125 kg/ha) | Postemergence herbicidal rating ORYSAT (ORYSAT Rice, Tebonnet [10]; 0.008 kg/ha) | ORYSAT herbicidal rating (ORYSAT Rice, Tebonnet [11]; rate 0.016 kg/ha) | ORYSAT herbicidal rating (ORYSAT Rice, Tebonnet [11]; rate 0.032 kg/ha) | Postemergence herbicidal rating GALAP (GALAP Galium [12]; 0.008 kg/ha) | Postemergence herbicidal rating GALAP (GALAP Galium [12]; 0.016 kg/ha) | IPOHE herbicidal rating ([13]; rate 0.016 kg/ha) | ABUTH herbicidal rating (ABUTH Velvetleaf [14]; rate 0.016 kg/ha) | Postemergence herbicidal rating SETVI (SETVI Foxtail, Green [17]; 0.008 kg/ha) | Postemergence herbicidal rating SETVI (SETVI Foxtail, Green [17]; 0.016 kg/ha) | Postemergence herbicidal rating SETVI (SETVI Foxtail, Green [17]; 0.032 kg/ha) | Postemergence herbicidal rating SETVI (SETVI Foxtail, Green [17]; 0.062 kg/ha) | Postemergence herbicidal rating CASOB (CASOB Sicklepod [18]; 0.008 kg/ha) | Postemergence herbicidal rating CASOB (CASOB Sicklepod [18]; 0.016 kg/ha) | Postemergence herbicidal rating CASOB (CASOB Sicklepod [18]; 0.032 kg/ha) | CASOB herbicidal rating (CASOB Sicklepod [19]; rate 0.016 kg/ha) | CASOB herbicidal rating (CASOB Sicklepod [19]; rate 0.032 kg/ha) | CASOB herbicidal rating (CASOB Sicklepod [19]; rate 0.062 kg/ha) | ECHCG herbicidal rating (ECHOG Barnyardgrass [20]; rate 0.016 kg/ha) | ECHCG herbicidal rating (ECHOG Barnyardgrass [20]; rate 0.032 kg/ha) | AMBEL herbicidal rating (AMBEL Ragweed, Common [21]; rate 0.016 kg/ha) | GLXMAW herbicidal rating (GLXMAW Soybean, Williams [22]; rate 0.016 kg/ha) | Postemergence herbicidal rating CHEAL ([24]; 0.008 kg/ha) | Postemergence herbicidal rating CHEAL ([24]; 0.016 kg/ha)
1.5: Postemergence herbicidal rating TRZAWR ([6]; 0.008 kg/ha) | Postemergence herbicidal rating TRZAWR ([6]; 0.016 kg/ha) | Postemergence herbicidal rating TRZAWR ([6]; 0.032 kg/ha) | AMBEL herbicidal rating (AMBEL Ragweed, Common [21]; rate 0.032 kg/ha) | GLXMAW herbicidal rating (GLXMAW Soybean, Williams [22]; rate 0.062 kg/ha)
5.5: Postemergence herbicidal rating GLXMAW (GLXMAW Soybean, Williams [15]; 0.016 kg/ha) | Postemergence herbicidal rating GLXMAW (GLXMAW Soybean, Williams [15]; 0.032 kg/ha) | Postemergence herbicidal rating GLXMAW (GLXMAW Soybean, Williams [15]; 0.062 kg/ha) | AMBEL herbicidal rating (AMBEL Ragweed, Common [21]; rate 0.125 kg/ha)
2.5: Postemergence herbicidal rating TRZAWR ([6]; 0.062 kg/ha) | AMBEL herbicidal rating (AMBEL Ragweed, Common [21]; rate 0.062 kg/ha)
5.0: Postemergence herbicidal rating ZEAMX (ZEAMX Corn, Field [23]; 0.062 kg/ha) | Postemergence herbicidal rating CHEAL ([24]; 0.062 kg/ha)
6.0: ZEAMX herbicidal rating (ZEAMX Corn, Field [3]; rate 0.125 kg/ha) | TRZAWR herbicidal rating ([5]; rate 0.125 kg/ha)
2.0: Postemergence herbicidal rating GALAP (GALAP Galium [12]; 0.032 kg/ha) | CASOB herbicidal rating (CASOB Sicklepod [19]; rate 0.125 kg/ha)
8.0: SETVI herbicidal rating (SETVI Foxtail, Green [4]; rate 0.032 kg/ha) | ECHCG herbicidal rating (ECHOG Barnyardgrass [20]; rate 0.125 kg/ha)
3.0: Postemergence herbicidal rating AMBEL (AMBEL Ragweed, Common [7]; 0.062 kg/ha) | ORYSAT herbicidal rating (ORYSAT Rice, Tebonnet [11]; rate 0.125 kg/ha) | IPOHE herbicidal rating ([13]; rate 0.032 kg/ha) | Postemergence herbicidal rating GLXMAW (GLXMAW Soybean, Williams [15]; 0.008 kg/ha) | GLXMAW herbicidal rating (GLXMAW Soybean, Williams [22]; rate 0.125 kg/ha) | Postemergence herbicidal rating ZEAMX (ZEAMX Corn, Field [23]; 0.008 kg/ha) | Postemergence herbicidal rating CHEAL ([24]; 0.032 kg/ha)
4.5: ZEAMX herbicidal rating (ZEAMX Corn, Field [3]; rate 0.062 kg/ha) | IPOHE herbicidal rating ([13]; rate 0.062 kg/ha) | IPOHE herbicidal rating ([13]; rate 0.125 kg/ha)
3.5: ECHCG herbicidal rating (ECHOG Barnyardgrass [20]; rate 0.062 kg/ha) | Postemergence herbicidal rating ZEAMX (ZEAMX Corn, Field [23]; 0.016 kg/ha) | Postemergence herbicidal rating ZEAMX (ZEAMX Corn, Field [23]; 0.032 kg/ha)
1.0: ZEAMX herbicidal rating (ZEAMX Corn, Field [3]; rate 0.032 kg/ha) | Postemergence herbicidal rating AMBEL (AMBEL Ragweed, Common [7]; 0.016 kg/ha) | Postemergence herbicidal rating AMBEL (AMBEL Ragweed, Common [7]; 0.032 kg/ha) | Postemergence herbicidal rating IPOHE ([8]; 0.008 kg/ha) | Postemergence herbicidal rating ORYSAT (ORYSAT Rice, Tebonnet [10]; 0.062 kg/ha) | ORYSAT herbicidal rating (ORYSAT Rice, Tebonnet [11]; rate 0.062 kg/ha) | Postemergence herbicidal rating CASOB (CASOB Sicklepod [18]; 0.062 kg/ha)
9.0: Postemergence herbicidal rating ABUTH (ABUTH Velvetleaf [2]; 0.008 kg/ha) | Postemergence herbicidal rating ABUTH (ABUTH Velvetleaf [2]; 0.016 kg/ha) | Postemergence herbicidal rating ABUTH (ABUTH Velvetleaf [2]; 0.032 kg/ha) | Postemergence herbicidal rating ABUTH (ABUTH Velvetleaf [2]; 0.062 kg/ha) | SETVI herbicidal rating (SETVI Foxtail, Green [4]; rate 0.062 kg/ha) | SETVI herbicidal rating (SETVI Foxtail, Green [4]; rate 0.125 kg/ha) | Postemergence herbicidal rating IPOHE ([8]; 0.062 kg/ha) | Postemergence herbicidal rating GALAP (GALAP Galium [12]; 0.062 kg/ha) | ABUTH herbicidal rating (ABUTH Velvetleaf [14]; rate 0.062 kg/ha) | ABUTH herbicidal rating (ABUTH Velvetleaf [14]; rate 0.125 kg/ha) | CHEAL herbicidal rating ([16]; rate 0.016 kg/ha) | CHEAL herbicidal rating ([16]; rate 0.032 kg/ha) | CHEAL herbicidal rating ([16]; rate 0.062 kg/ha) | CHEAL herbicidal rating ([16]; rate 0.125 kg/ha)
4.0: TRZAWR herbicidal rating ([5]; rate 0.062 kg/ha) | Postemergence herbicidal rating IPOHE ([8]; 0.016 kg/ha) | Postemergence herbicidal rating IPOHE ([8]; 0.032 kg/ha)
0.5: Postemergence herbicidal rating ORYSAT (ORYSAT Rice, Tebonnet [10]; 0.016 kg/ha) | Postemergence herbicidal rating ORYSAT (ORYSAT Rice, Tebonnet [10]; 0.032 kg/ha) | GLXMAW herbicidal rating (GLXMAW Soybean, Williams [22]; rate 0.032 kg/ha)

Reference: patent publication US20020111274A1, “1-alkyl-3-[1-(substituted phenyl) benzotriazol-6-yl] uracils” (BASF Aktiengesellschaft, priority 2000, published 2002)
